Assay [1] deals with E. coli D22. In words: microbe, parasite or virus in culture. The format is cell-based. The following applies: Escherichia coli, D22, read-out: MIC E. coli D22.
Assay [2] relates to K. pneumoniae UMM. In words: microbe, parasite or virus in culture. The format is cell-based. The conditions noted are these: Klebsiella pneumoniae, read-out: MIC K. pneumoniae UMM.
The subject of assay [3] is N. gonorrhoeae FA1090. In words: Liquid broth MIC in Fastidious broth. The following applies: Neisseria gonorrhoeae, FA1090, read-out: Minimum Inhibitory Concentration (MIC), N. gonorrhoeae FA 1090.
The test system of assay [4] is P. aeruginosa ATCC 27853. In words: microbe, parasite or virus in culture. The conditions noted are these: Pseudomonas aeruginosa, ATCC27853, read-out: MIC P. aeruginosa ATCC 27853. The format is cell-based.
Assay [5] deals with K. pneumoniae SI-117. In words: microbe, parasite or virus in culture. The format is cell-based. The following applies: Klebsiella pneumoniae, SI117, read-out: MIC K. pneumoniae SI-117.
The subject of assay [6] is N. gonorrhoeae WHO L. In words: Liquid broth MIC in Fastidious broth. The following applies: Neisseria gonorrhoeae, read-out: Minimum Inhibitory Concentration (MIC), N. gonorrhoeae WHO L.
Assay [7] addresses T1, PBP2 from Neisseria gonorrhoeae (FA19) (Neisseria gonorrhoeae, UniProt P08149).
T1 construct: made in house
In words: Bocillin-FL fluorescence polarization competition binding, N. gonorrhoeae PBP2. The conditions noted are these: fluorescence polarization competition binding assay using Bocillin-FL, read-out: N. gonorrhoeae PBP2 Potency. Summed up:
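Fluorescence polarization competition with 0.1 μM Bocillin-FL (fluorescent penicillin V) against 0.25 μM N. gonorrhoeae FA19 PBP2 in 50 mM Hepes pH 8.0, 300 mM NaCl, 10% glycerol. Boronic acid inhibitors were preincubated with PBP, then Bocillin-FL was added and FP read (490/520 nm) up to 60 min. EC50 is the concentration halving PBP-bound Bocillin-FL.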

The subject of assay [8] is P. aeruginosa ATCC 35151. In words: microbe, parasite or virus in culture. The format is cell-based. The following applies: Pseudomonas aeruginosa, ATCC35151, read-out: MIC P. aeruginosa ATCC 35151.
In assay [9] the test system is N. gonorrhoeae WHO Z. Put plainly: Liquid broth MIC in Fastidious broth. The conditions noted are these: Neisseria gonorrhoeae, read-out: Minimum Inhibitory Concentration (MIC), N. gonorrhoeae WHO Z.
Assay [10] has as its system E. coli 901C. In words: microbe, parasite or virus in culture. The format is cell-based. The conditions noted are these: Escherichia coli, read-out: MIC E. coli 901C.
Assay [11] deals with N. gonorrhoeae WHO K. Put plainly: Liquid broth MIC in Fastidious broth. The conditions noted are these: Neisseria gonorrhoeae, read-out: Minimum Inhibitory Concentration (MIC), N. gonorrhoeae WHO K.
In assay [12] the test system is E. coli AG100. In words: microbe, parasite or virus in culture. The format is cell-based. The conditions noted are these: Escherichia coli, AG100, read-out: MIC E. coli AG100.
Assay [13] has as its system N. gonorrhoeae MS11. In words: Liquid broth MIC in Fastidious broth. The conditions noted are these: Neisseria gonorrhoeae, MS11, read-out: Minimum Inhibitory Concentration (MIC), N. gonorrhoeae MS11.
For assay [14], the system named is N. gonorrhoeae WHO G. Put plainly: Liquid broth MIC in Fastidious broth. The following applies: Neisseria gonorrhoeae, read-out: Minimum Inhibitory Concentration (MIC), N. gonorrhoeae WHO G.
Description: Additional antibacterial testing of the series was performed in 8 reference strains of N. gonorrhoeae (ATCC 49226, FA1090, MS 11, WHO G, WHO L, WHO M, WHO K, WHO X, WHO Z, WHO Q, CDC-0197). ATCC 49226, FA1090, MS11, WHO G, WHO L, and WHO M produce wild type or wild-type like PBP2. WHO K, WHO X, WHO Z, WHO Q, and CDC-0197 produce mosaic PBP2. Liquid broth-based assays were used for antibacterial testing of PBP inhibitors in Neisseria gonorrhoeae. Briefly, cryo-preserved bacterial cultures of clinical strains were streaked for isolation on Chocolate Agar (72 g/L (2×) GC Agar Base (BD #228950) and 2% (2×) Hemoglobin was autoclaved at 121° C. for 20 minutes to sterilize. Once cooled to ˜50° C. the 2×GC Agar Base and 2× Hemoglobin solutions are combined and 1% IsoVitaleX Enrichment (BD #211876) was added to the solution). Strains were incubated at 36° C. and 5% CO2 to allow growth of colonies, 24 hours before inoculum preparation. 2-fold serial dilutions of test compounds were conducted in a 96 well plate with a final volume of 75 μL per well at 2-fold the final desired concentration in Fastidious broth (Remel #R07664). For preparation of assay inoculum, a direct suspension was prepared by aseptically swabbing 10-15 colonies from agar plates into culture tubes containing 2 mL of fresh sterile saline. After the dilution plates were set up, direct suspensions were then diluted in a cuvette containing sterile saline and the optical density was measured at 600 nm. Inocula were diluted such that 75 μL of this culture in Fastidious broth results in a starting bacterial concentration of 5×10^5 CFU/mL when added to the dilution plates. The plates were incubated for ˜24 hours at 36° C. and 5% CO2.

The structures appear in SMILES notation. pEC50: −log10 of the molar value. In brackets after ≈: the same amount, converted by molar mass.

T1 sequence (P08149 whole entry): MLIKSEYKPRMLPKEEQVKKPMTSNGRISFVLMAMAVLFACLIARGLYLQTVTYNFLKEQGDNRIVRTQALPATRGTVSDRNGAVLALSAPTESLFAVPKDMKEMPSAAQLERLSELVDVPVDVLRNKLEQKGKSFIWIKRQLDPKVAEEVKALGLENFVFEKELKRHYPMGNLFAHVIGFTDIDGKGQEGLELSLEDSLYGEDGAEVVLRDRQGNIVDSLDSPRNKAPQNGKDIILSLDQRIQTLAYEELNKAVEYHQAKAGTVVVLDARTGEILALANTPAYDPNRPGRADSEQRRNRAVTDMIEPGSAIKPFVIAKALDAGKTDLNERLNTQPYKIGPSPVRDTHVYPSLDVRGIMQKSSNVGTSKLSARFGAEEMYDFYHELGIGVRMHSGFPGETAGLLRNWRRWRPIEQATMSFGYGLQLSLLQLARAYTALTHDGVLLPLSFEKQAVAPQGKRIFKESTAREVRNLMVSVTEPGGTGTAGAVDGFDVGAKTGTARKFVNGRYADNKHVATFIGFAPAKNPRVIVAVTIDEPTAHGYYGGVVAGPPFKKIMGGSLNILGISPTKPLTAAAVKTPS

With `CC(C)(C)C(=O)NC(C(=O)N[C@H]1Cc2cccc(C(=O)O)c2OB1O)c1ccc(P(=O)(O)O)cc1` (stereo partly drawn) [Example 29, (3R)-2-hydroxy-3-(2-(4-phosphonophenyl)-2-pivalamidoacetamido)-3,4-dihydro-2H-benzo[e][1,2]oxaborinine-8-carboxylic acid], the MIC in assay [1] is 8 to 16 µg/mL (≈ 15.9 to 31.7 µM); in assay [2] it was 32 to 64 µg/mL (≈ 63.5 to 127 µM); in [3], 4 to 8 µg/mL (≈ 7.93 to 15.9 µM); in [4], 32 to 64 µg/mL (≈ 63.5 to 127 µM); in assay [5], above 128 µg/mL; in assay [6], 16 to 32 µg/mL (≈ 31.7 to 63.5 µM). Further, the MIC in [8] was 2 to 4 µg/mL (≈ 3.97 to 7.93 µM); in [9] it was 16 to 32 µg/mL (≈ 31.7 to 63.5 µM); in assay [10] it was 8 to 16 µg/mL (≈ 15.9 to 31.7 µM); in assay [11], 16 to 32 µg/mL (≈ 31.7 to 63.5 µM); in [12], above 128 µg/mL; in assay [13], 16 to 32 µg/mL (≈ 31.7 to 63.5 µM). Further, the MIC in [14] fell in the range of 16 to 32 µg/mL (≈ 31.7 to 63.5 µM). For the same compound, the pEC50 in [7] is above 5.00.

Consider `O=C(O)c1cccc2c1OB(O)[C@@H](NC(=O)C(NC(=O)C1CC1)c1ccc(P(=O)(O)O)cc1)C2` (stereo partly drawn) [Example 30, (3R)-3-(2-(cyclopropanecarboxamido)-2-(4-phosphonophenyl)acetamido)-2-hydroxy-3,4-dihydro-2H-benzo[e][1,2]oxaborinine-8-carboxylic acid], for which the MIC in assay [1] was 8 to 16 µg/mL (≈ 16.4 to 32.8 µM); in assay [2] it was above 128 µg/mL; in [3], 4 to 8 µg/mL (≈ 8.19 to 16.4 µM); in assay [4], above 128 µg/mL; in assay [5], above 128 µg/mL; in assay [6] it was 16 to 32 µg/mL (≈ 32.8 to 65.5 µM). In addition, the MIC in assay [8] is 8 to 16 µg/mL (≈ 16.4 to 32.8 µM); in [9] it was 16 to 32 µg/mL (≈ 32.8 to 65.5 µM); in assay [10] it was 8 to 16 µg/mL (≈ 16.4 to 32.8 µM); in assay [11], 16 to 32 µg/mL (≈ 32.8 to 65.5 µM); in assay [12], above 128 µg/mL; in assay [13] it was 16 to 32 µg/mL (≈ 32.8 to 65.5 µM). In [14], the MIC was in the range of 4 to 8 µg/mL (≈ 8.19 to 16.4 µM). Also, in assay [7], the pEC50 is above 5.00.

Regarding `O=C(O)c1cccc2c1OB(O)[C@@H](NC(=O)C(NC(=O)C1CCCCC1)c1ccc(P(=O)(O)O)cc1)C2` (stereo partly drawn) [Example 31, (3R)-3-(2-(cyclohexanecarboxamido)-2-(4-phosphonophenyl)acetamido)-2-hydroxy-3,4-dihydro-2H-benzo[e][1,2]oxaborinine-8-carboxylic acid], the MIC was 32 to 64 µg/mL (≈ 60.3 to 121 µM) in assay [1]; above 128 µg/mL in assay [2]; 4 to 8 µg/mL (≈ 7.54 to 15.1 µM) in assay [3]; above 128 µg/mL in assay [4]; above 128 µg/mL in assay [5]; 16 to 32 µg/mL (≈ 30.2 to 60.3 µM) in [6]. Besides, the MIC was 2 to 4 µg/mL (≈ 3.77 to 7.54 µM) in [8]; 16 to 32 µg/mL (≈ 30.2 to 60.3 µM) in [9]; 32 to 64 µg/mL (≈ 60.3 to 121 µM) in [10]; 16 to 32 µg/mL (≈ 30.2 to 60.3 µM) in [11]; above 128 µg/mL in [12]; 16 to 32 µg/mL (≈ 30.2 to 60.3 µM) in assay [13]. Further, the MIC in assay [14] is 16 to 32 µg/mL (≈ 30.2 to 60.3 µM). For the same compound, in [7], the pEC50 is above 5.00.

For the compound `O=C(NC(C(=O)N[C@H]1Cc2cccc(C(=O)O)c2OB1O)c1ccc(P(=O)(O)O)cc1)c1ccccn1` (stereo partly drawn) [Example 32, (3R)-2-hydroxy-3-(2-(4-phosphonophenyl)-2-(picolinamido)acetamido)-3,4-dihydro-2H-benzo[e][1,2]oxaborinine-8-carboxylic acid], the MIC is 8 to 16 µg/mL (≈ 15.2 to 30.5 µM) in [1]; above 128 µg/mL in [2]; below 1 µg/mL in [3]; above 128 µg/mL in assay [4]; above 128 µg/mL in [5]; 16 to 32 µg/mL (≈ 30.5 to 60.9 µM) in [6]. In addition, the MIC was 2 to 4 µg/mL (≈ 3.81 to 7.62 µM) in [8]; 1 to 2 µg/mL (≈ 1.9 to 3.81 µM) in assay [9]; 2 to 4 µg/mL (≈ 3.81 to 7.62 µM) in [10]; 4 to 8 µg/mL (≈ 7.62 to 15.2 µM) in assay [11]; above 128 µg/mL in assay [12]; 1 to 2 µg/mL (≈ 1.9 to 3.81 µM) in assay [13]. Further, in assay [14], the MIC was below 1 µg/mL. In addition, the pEC50 in [7] was above 5.00.

As to `CC(=O)N1CCC[C@@H]1C(=O)N[C@H](C(=O)N[C@H]1Cc2cccc(C(=O)O)c2OB1O)c1ccc(P(=O)(O)O)cc1` [Example 33, (3R)-3-(2-((R)-1-acetylpyrrolidine-2-carboxamido)-2-(4-phosphonophenyl)acetamido)-2-hydroxy-3,4-dihydro-2H-benzo[e][1,2]oxaborinine-8-carboxylic acid], the MIC in [1] is 32 to 64 µg/mL (≈ 57.2 to 114 µM); in assay [2], above 128 µg/mL; in assay [3], 4 to 8 µg/mL (≈ 7.15 to 14.3 µM); in assay [4], above 128 µg/mL; in [5], above 128 µg/mL; in assay [6] it was 16 to 32 µg/mL (≈ 28.6 to 57.2 µM). The MIC in assay [8] was 8 to 16 µg/mL (≈ 14.3 to 28.6 µM); in assay [9] it was 16 to 32 µg/mL (≈ 28.6 to 57.2 µM); in assay [10] it was 32 to 64 µg/mL (≈ 57.2 to 114 µM); in [11], 16 to 32 µg/mL (≈ 28.6 to 57.2 µM); in assay [12], above 128 µg/mL; in assay [13] it was 16 to 32 µg/mL (≈ 28.6 to 57.2 µM). Moreover, in assay [14], the MIC was in the range of 16 to 32 µg/mL (≈ 28.6 to 57.2 µM). For the same compound, in assay [7], the pEC50 was above 5.00.
